Source: patent US20260317328A1, “SMALL MOLECULES FOR ADOPTIVE T-CELL THERAPY (ACT) THROUGH ACTIVATION OF THE mTOR SIGNALLING PATHWAY, PROCESS FOR PREPARATION THEREOF” (COUNCIL OF SCIENTIFIC & INDUSTRIAL RESEARCH, priority 2023, published 2026)

Columns and labels:
CD8^+ T cells [1] = assay: Initial small molecule screening: intracellular cytokine staining of CD8+ T cells activated with each small molecule; format: cell-based, mouse
Description: To select the small molecule capable of inducing IFN-γ production in CD8^+ T cells, […] CD3^+ sorted naïve T cells were activated with each small molecule for 72 hrs followed by an intracellular cytokine staining.
CD3^+ T cells were isolated from human peripheral blood by density-gradient (Ficoll gradient) centrifugation followed by a negative selection using Dynabeads Untouched Human T Cells Kit, resulting in a typically >90% pure CD3^+ T cell population.
(§1) Purified naïve CD3^+ T cells were activated either in presence of Comp 19 ([…]) or vehicle (DMSO) with plate-bound anti-CD3 ([…]) and anti-CD28 ([…]) for 72 h in RPMI-1640 medium containing 10% FBS, 50 µM R-ME, 50 U/mL penicillin and […] streptomycin and 100 IUmL^−1 rIL-2.
(§2) Measurement of cytokine production: To assess IFN-γ and TNF-α secretion by intracellular cytokine staining, cells (0.2×10^6) were treated for 4 hours with restimulation cocktail containing phorbolmyristate acetate (50 ng ml^−1) and ionomycin (500 ng ml^−1), brefeldin A (to block anterograde protein transport). Then cells were stained for surface markers and simultaneously labeled with Live/Dead Yellow Fluorescent Dye for 20 min at 4° C. Next cells were washed with PBS, fixed for 20 min at 4° C. with fixation/permeabilization solution, washed with permeabilization buffer, finally stained for 30 min with anti-IFN-γ and anti-TNF-α mAb in dark at 4° C., washed with PBS and analyzed.

CD8^+ T cells [2] = assay: Glucose uptake assay (2NBDG) in activated CD8+ T cells; format: cell-based; conditions: naïve T cells activated in presence of compound; 2NBDG (FIG. 2A)
Description: (§3) Distinct T cell states require specific metabolic programs compatible to their functional demands. The transition between various T cell states is accompanied by active rewiring of cellular metabolism and epigenetic landscape. Oxidative phosphorylation is the main biochemical pathway that drives metabolism of naïve T cell. Upon activation, naïve T cells rapidly reprogram their metabolic networks to comply with the demands of robust clonal expansion and epigenetic remodeling. So, TCR activation and co-stimulation initiate a set of signaling cascades that collectively license a T cell to exit quiescence. Stimulation of the TCR promotes signaling through the ERK/MAPK pathways and calcium flux, activation of the PI3K-AKT-mTOR axis which subsequently resulting in T cell activation. This conversion to an activated effector T cell is marked by enhanced glucose uptake, engagement of aerobic glycolysis, increased oxidative phosphorylation. So, we assessed glucose uptake level by activated CD8^+ T cells using fluorescent labeled deoxy-glucose analogue, 2NBDG. […]
Glucose uptake assay: Glucose uptake by activated T cells was evaluated using fluorescent labeled deoxy-glucose analogue, 2NBDG. […]

[3] = Lipophilicity assay (n-octanol / phosphate buffer); format: physicochemical; conditions: pH 7.4, 1-octanol/10 mM sodium phosphate buffer, room temperature; criteria: <0 low, 0-1 moderate, >2 high lipophilicity
Procedure: 1.56 g NaH2PO4O·2H2O was dissolved in 0.5 L water in a 1 L beaker. After adjusting pH to 7.4 using NaOH solution, the volume was made up to 1 L. Equal volumes of sodium phosphate buffer (10 mM, pH 7.4) and n-octanol were added to a separation funnel and mixed thoroughly by shaking and inverting the funnel several times. The two layers were allowed to separate for overnight and then dispensed in two separate glass bottles. 10 mM stock solution was prepared in 100% DMSO and stored at 4° C. 495 μL of organic phase (1-octanol) was added to each well of a 2 mL deep well plate, followed by 495 μL of buffer and 10 μL of test substance was added. The plate was incubated for 3 hr at room temperature on a plate shaker at 500 rpm. After incubation, the samples were allowed to equilibrate for 20 min and then centrifuged at 4000 rpm for 30 min for complete phase separation and analysed by LC-UV.
Log D=Log (area of octanol/area of buffer)

mTORC1 = mTORC1 activity in CD8+ T cells: pS6 and p4EBP1 levels (flow cytometry, western blot); format: cell-based
Description: Several transcription factors and signaling pathways coordinately support and regulate the metabolic shifting of naïve T cell after activation. Downstream of co-stimulation and PI3K-AKT signaling, mammalian target of Rapamycin (mTOR) kinase pathway helps in integrating multiple signals, plays a significant role for cell cycle entry and coordinates early anabolic changes that occur upon T cell activation mTOR complex 1 (mTORC1) promote aerobic glycolysis and support effector T cell proliferation, growth, and cytokine production. Translation repressor protein 4E-BP1 inhibits cap-dependent translation by binding to the translation initiation factor eIF4E. Phosphorylation of 4E-BP1 by mTORC1 disrupts this interaction and results in activation of cap-dependent translation. On the contrary, phosphorylation of S6 ribosomal protein correlates with an increase in translation of mRNA transcripts that contain an oligopyrimidine tract in their 5′ untranslated regions. Activation of mTORC1 increases protein translation via direct phosphorylation of 4E-BP1 and p70S6 kinase. Since Comp-19 was proposed as mTORC1 activator, next we sought to check expression level ofpS6 and p4EBP1 level inside CD8^+ T cells activated in presence/absence of Comp-19. […] CD8^+ T cells treated with Comp-19 (FIG. 3A-C).
as §1
pS6 Staining: Intracellular phospho ribosomal protein S6 (pS6) were stained using Transcription factor Phospho Buffer set. Single cell suspension was prepared and cells were washed with 1×PBS. […] Finally, cells were washed, dissolved in PBS and analysed by flow cytometry.
Cell lysates from 4×10^6 cells per condition were prepared in RIPA buffer containing protease inhibitor cocktail. Protein concentrations were determined with a serial dilution standard curve of Bradford assay. […]

[4] = Metabolic stability using human liver microsomes (HLM); format: in vitro ADME; conditions: pH 7.4, read-out: % QH (Well stirred model)
Procedure: 1 mM stock solution of test compound was prepared in DMSO and diluted with Acetonitrile:Water (1:1) to get a 100 μM working concentration. 100 mL of Milli Q water was added to K2HPO4 (1.398 g) and KH2PO4 (0.27 g) to get final pH 7.4 solution of potassium phosphate buffer. […] The above mixture was pre incubated for 15 minutes at 37° C. After pre incubation, 32.5 μL of the mixture was added to 17.5 μL of buffer, this was incubated for 60 minutes at 37° C. [60 min Without Cofactor (NADPH)]. 16.25 μL of the pre incubated mixture and 8.75 μL of cofactor was added to 150 μL of acetonitrile containing internal standard [0 min Sample]. 62 μL of cofactor was added to remaining pre incubation mixture [Incubation mixture]. 25 μL of incubation mixture at 0, 5, 15, 30, 60 min and 60 min without cofactor were precipitated with 150 μL of acetonitrile containing internal standard, vortexed and centrifuged at 4000 rpm at 4° C. for 20 minutes. 120 μL of supernatant was diluted with 120 μL of water and analyzed by LC-MS/MS [sample preparation].

Plasma stability assay = format: in vitro ADME; conditions: human, 37° C., 120 mins
Procedure: 1 mM Stock of test compound was prepared from 10 mM initial stock solution of compounds by diluting 10 μL of 10 mM stock with 90 μL of DMSO. Then 10 μL of 1 mM stock was diluted with 90 μL of DMSO to give 100 μM concentration. The frozen plasma was thawed at room temperature and centrifuged at 1400 rpm at 4° C., for 15 minutes. Approximately 90% of the clear supernatant fraction was transferred to a separate tube and was used for the assay. Final working stock of 1 μM was prepared by diluting 3 μL of 100 μM with 297 μL of plasma. Plasma containing the test compound was incubated for 120 mins at 37° C. in shaker with 500 rpm. 50 μL of aliquot of sample at 0, 15, 30, 60 and 120 minutes were precipitated with 150 μL of acetonitrile containing internal standard and centrifuged at 4000 rpm at 4° C. for 20 minutes. 120 μL of supernatant was diluted with 120 μL of water and analyzed by LC-MS/MS.

CD8^+ T cells [5] = assay: Effector cytokine (IFN-γ, TNF-α) production by activated CD8+ T cells; format: cell-based; conditions: naïve T cells activated in presence of compound (FIG. 2B-E)
Description: as §3, with “Stimulation of the TCR promotes signaling through the ERK/MAPK pathways and calcium flux, activation of the PI3K-AKT-mTOR axis which subsequently resulting in T cell activation. This conversion to an activated effector T cell is marked by enhanced glucose uptake, engagement of aerobic glycolysis, increased oxidative phosphorylation.” left out
as §2, with “Then cells were stained for surface markers and simultaneously labeled with Live/Dead Yellow Fluorescent Dye for 20 min at 4° C.” left out

EL4-OVA tumors = assay: Adoptive transfer of OT1 T cells into mice bearing EL4-OVA tumors; format: in vivo, mouse
Procedure: Given the functional fitness of Comp-19 treated CD8^+ T cells in vitro, we, next, sought to determine their antitumor potential upon adoptive transfer into mice bearingEL4-OVA tumors.
EL-4.OVA tumor cells (1×10^6) or B16-F10 melanoma (0.5×10^6 cells) were injected subcutaneously into the left flank of 7-10 weeks old C57BL/6 mice. After 9 days of tumor establishment, ex vivo activated OT-1 T cells at 0.5×10^6 cells/mouse were adoptively transferred intravenously into tumor-bearing recipients.

[6] = tested on: Human naïve CD8^+ T cells; assay: EC50 for IFNγ production in human naïve CD8+ T cells; format: cell-based; conditions: 72 hrs, doses 500 pM to 50 μM, N=3 for each dose
Procedure: Human naïve CD8^+ T cells were sorted from PBMC and activated in presence of Comp 19 in the different doses (500 pM, 1 nM, 100 nM, 500 nM, 1 μM, 5 μM, 10 μM, 50 μM). After 72 hrs, activated CD8+ T cells were restimulated and stained for IFNγ production. Percent of CD8+ T cell producing IFNγ in the previously mentioned doses of Comp 19 was normalized to a vehicle control (DMSO) treated group. The optimum dosage of Comp 19 for inducing effector cytokine (IFNγ) production from CD8^+ T cells is 10 μM. […] (N=3 for each dose of Comp 19).
Human peripheral blood mononuclear cells (PBMC) were obtained from fully anonymized whole blood bags (age & sex related information were not provided) collected from healthy volunteer blood donors at NRS Medical College & Hospital, Kolkata, India. […]
as §2, with “Then cells were stained for surface markers and simultaneously labeled with Live/Dead Yellow Fluorescent Dye for 20 min at 4° C.” left out

[7] = 10 μM, 72 hrs, compared to vehicle control/other small molecules treated group (FIG. 1A-B)
[8] = OT1 T cells (0.5×10^6 cells/mouse) activated in presence of 10 μM ml^−1 compound
[9] = inhibitory receptor (FIG. 4F,4G)

For COc1ccc(-c2nc3c(NS(=O)(=O)c4ccc(C)cc4)ncnc3n2C)cc1 [Compound 19, N-(8-(4-methoxyphenyl)-9-methyl-9H-purin-6-yl)-4-methylbenzenesulfonamide], the “IFN-γ production from CD8^+ T cells” value (CD8^+ T cells [1]; [7]) was “highest”, the “TNF-α production from CD8^+ T cells” value (CD8^+ T cells [1]; [7]) was “highest” and the “improving effector cytokine production from CD8^+ T cells (ranking among the small molecules)” value (CD8^+ T cells [1]; 72 hrs activation) was “most promising”. For the same molecule, the glucose uptake (CD8^+ T cells [2]) was “promoted glucose uptake”, the logD [3] was 0.96 and the mTORC1 activation (mTORC1; conclusion from pS6 and 4EBP1 results in CD8^+ T cells) was “potent mTOR-Cl activator”. For the same molecule, the “4EBP1 (p4EBP1) expression” value (mTORC1; downstream substrate of mTORC1 (FIG. 3D)) was “significant high expression”, the “pS6 level inside CD8^+ T cells” value (mTORC1; flow cytometry and western blot (FIG. 3A-C)) was “marked increase” and the hepatic extraction ratio [4] was 0.0077. The remaining at 2 h, 1 µM (Plasma stability assay) was 85.8%, the “IFN-γ production level from CD8^+ T cell” value (CD8^+ T cells [5]) was “significant increase” and the “TNF-α production level from CD8^+ T cell” value (CD8^+ T cells [5]) was “significant increase”. For the same molecule, the “persistence of CD8+Vβ5.1+ OT1 T cells” value (EL4-OVA tumors; FIG. 4B) was “improved persistence”, the “survival of tumor-bearing mice” value (EL4-OVA tumors; [8]) was “markedly enhanced the survival” and the tumor growth control (EL4-OVA tumors; [8]) was “could efficiently control tumor growth”. The “CD38 expression on CD8+Vβ5.1+ OT1 T cells” value (EL4-OVA tumors; [9]) was “reduced expression”, the “PD1 expression on CD8+Vβ5.1+ OT1 T cells” value (EL4-OVA tumors; [9]) was “reduced expression” and the “TIM3 expression on CD8+Vβ5.1+ OT1 T cells” value (EL4-OVA tumors; [9]) was “reduced expression”. For the same molecule, the “number of circulating CD8^+Vβ5.1^+ T cells” value (EL4-OVA tumors; tumor-bearing host, vs mice that received DMSO treated cells) was “higher number”, the “optimum dosage for inducing effector cytokine (IFNγ) production from CD8^+ T cells” value [6] was 10 µM and the EC50 ([6]; Homo sapiens, T-cell, normalized to vehicle (DMSO)) was 4.09 µM.

For CCc1ccc(S(=O)(=O)Nc2ncnc3c2nc(-c2ccc(OC)cc2)n3C)cc1 [Compound 22, 4-ethyl-N-(8-(4-methoxyphenyl)-9-methyl-9H-purin-6-yl)benzenesulfonamide], the logD [3] was 4.32, the hepatic extraction ratio [4] was 0.318 and the remaining at 2 h, 1 µM (Plasma stability assay) was 3.9%.

Work on COCCc1ccc(OCC(O)CNC(C)C)cc1 (centres unmarked) [Metroprolol, reference compound] yielded a logD [3] of -0.34.

With CC(C)[N+](C)(CCOC(=O)C1c2ccccc2Oc2ccccc21)C(C)C [Propantheline, reference compound] the remaining at 2 h, 1 µM (Plasma stability assay) was 0.33%.
